Literature values, collected in patent EP1450788B1, “USE OF COUMARIN OR ITS HYDROXY DERIVATIVE FOR THE TREATMENT OF MEDIUM OR SEVERE VASCULAR AND/OR LYMPHATIC EDEMA” (priority 2001, dated 2003).

What was measured:
hepatic tissue = details: oral doses of about 200 mg/day
[1] = test system: lymphoedema of the upper limbs; details: 90 mg/day versus 135 mg/day; lymphoedema of the upper limbs secondary to surgery and irradiation for breast cancer

Compound | haematic levels by the transdermic route (transdermal administration) | cytosolytic hepatocytic enzymes in the plasma (biochemical markers of the hepatic damage) (hepatic tissue) | clinical efficacy (apparent benefits of the two coumarin dosages) [1] | haematic levels, transdermal route relative to oral route (transdermal administration versus oral route) [fold]
O=c1ccc2ccc(O)cc2o1 [7-hydroxy-coumarin, 7-hydroxycoumarin] | a decrease of the haematic levels | – | – | –
O=c1ccc2ccccc2o1 [coumarin, 5,6-benzopyran-2-one] | – | high concentrations | No difference was found | 10
